These are literature values, as cited in publication PMC9165289, “Theranostic PSMA ligands with optimized backbones for intraoperative multimodal imaging and photodynamic therapy of prostate cancer” (European Journal of Nuclear Medicine and Molecular Imaging, 2022).

One may read the IC50 as the midpoint of a concentration-inhibition curve.

The test system of data set [1] is PSMA. On the set-up: method as in PMID 27789722, PMID 29651565. To be noted: reported in the literature; cited from earlier work.
For data set [2], the system named is PSMA. On the set-up: method as in PMID 27789722, PMID 29651565. To be noted: reported in the literature; cited from earlier work. The source holds these as a separate data set.

Turning to PSMA-1007, the IC50 in the data set with PSMA [1] is 4.2 ± 0.5 nM. Moreover, the internalization ratio in the data set with PSMA [2] was 67%.
